# Assay results from patent US6590123B2, “Aminobenzoic acid derivatives having anti-tumorigenic activity, methods of making and using the same” (Mount Sinai School of Medicine of New York University, priority 1998, dated 2003).
# Tests used:
# [1] = test system: repolymerized microtubules; assay: Inhibition of microtubule disassembly by spectrophotometry, cell free system; type: biochemical, calf; conditions: 20 μg/ml (66 μM)
# Description: Purified tubulin was purchased from Sigma (St. Louis, Mo.). The effects of compounds 6, 7, 8, 9, paclitaxel and vinblastine on the microtubule assembly-disassembly process were determined using conditions recommended by the vendor. For assembly inhibition, 100 μl tubulin solution (500-600 μg protein/ml) was mixed gently with 400 μl reaction buffer containing 0.1 M MES (2-[N-morpholino]ethane sulfonic acid), 1 mM EGTA ([…]-N,N,N′,N′-tetraacetic acid), 0.5 mM MgCl2, 0.1 mM EDTA and 2.5 M gycerol at 37° C. Compounds 6, 7, 8, and 9 were next added to each sample at final concentrations of 10, 10, 1 and 1 μg/ml, respectively. After adding GTP to each sample to a final concentration of 1 mM, the microtubule assembly process was monitored by measuring the change of absorbance (OD) at 350 nm on a spectrophotometer (Ultrospec III, Pharmacia LKB, Uppsala, Sweden). […] Changes of absorbance (OD) were monitored at 350 nm for 30 min until the OD values in the controls returned to the starting level, i.e., when the assembly-disassembly cycle was completed.
# Purified tubulin from calf brain was purchased from Sigma (St. Louis, Mo.). The effects of 3-BAABU (3-bromoacetoamido, benzoylurea) on the microtubule assembly-disassembly process were determined using the conditions recommended by the vendor. […]
# [2] = test system: EL4 murine leukemia lymphoma; assay: Block of mitosis, morphology by microscopy; type: cell-based; set-up: key: +Block of mitosis was observed; −no mitotic blocking; conditions: 37° C. for 48 hr
# Description: All cell lines, with the exception of human SP cells, a biphenotypic leukemic cell line (reference 10 & 11), were obtained from the American Tissue Culture Collection (Rockville, Md.) and were cultured under conditions recommended by the vendor. EL4 murine leukemia lymphoma (as suspension) and B16 mouse melanoma (as monolayer) cell lines were cultivated in RPMI-1640 medium supplemented with 10% fetal bovine serum (FBS), penicillin (250 μ/ml) and streptomycin (250 μml); MOT, a non-tumor proliferative myocardial cell line from rat and NIH 3T3, a non-malignant and proliferative fibroblast cell line from mouse were both cultured as monolayers in Dulbecco's Modified Eagle's Medium with 10% heat inactivated calf serum. CEM, a human acute T-cell leukemic cell line, was cultured as a suspension in Iscove's Dulbecco's Medium with 10% heat inactivated fetal calf serum and antibiotics. PC-3 cells, a human prostate cancer line, was cultured as monolayers in RPMI-1640 with 10% FBS. SP cells were cultured in Minimum Eagle's Medium plus 10% FBS. Human peripheral blood lymphocytes (PBL) were isolated from whole blood of healthy individuals by Ficoll-Hypaque gradient method. Isolated PBL were maintained in RPMI-1640 in the presence of 10% homologous plasma at 37° C. All cells were incubated at 37° C. in 5% C02. Cells in exponential growth were used. […]
# L1210 Leukemia = assay: Survival of mice implanted i.p. with L1210 Leukemia; type: in vivo
# Description: Both control and treated animals were examined for ascitic tumor burden daily for 35 days.
smiles,measurement,setting,value
"NC(=O)NC(=O)c1cccc(NC(=O)CBr)c1 [Compound 8, 3-Bromoacetoamido, benzoylurea]",effect on microtubular depolymerization,[1],not influenced
same,Block of Mitosis,[2],+
same,Survival IL %,L1210 Leukemia; 20 mg/kg ip on days 2 & 8,44%
same,Survival Mean ± SD,"L1210 Leukemia; 20 mg/kg ip on days 2 & 8, control 16.5 ± 1.4",23.7 ± 4.4
